Test results from US20250051327A1, “MALT-1 MODULATORS” (EXSCIENTIA AI LIMITED, priority 2020, published 2025).

Columns and labels:
[1] = test system: IL-2 secretion by human effector memory T cells (TEM); assay: Effector memory T cells IL-2 release assay; assay type: cell-based; conditions: T-cell; human CD4+ effector memory T cells, CD3/CD28 bead stimulation, 24 h; read-out: CD4TC IL2 IC50
Description: Effector Memory T Cells IL-2 Release Assay
Test compound-mediated inhibition of NFκB signalling in T cells was assessed by quantification of the IL-2 secretion by human effector memory T cells (TEM) upon treatment and stimulation. Human TEM cells were isolated from buffy coats of healthy donors obtained from the French blood bank. First, peripheral blood mononuclear cells (PBMC) were purified from buffy coats diluted 1:1 with DPBS (Gibco, cat #14190-094) by Pancoll (PAN BIOTECH, cat #P04-60500) density gradient centrifugation at 400×g for 20 minutes. TEM cells were further enriched by negative immuno-magnetic cell sorting using a human CD4+ Effector Memory T Cell Isolation Kit (Miltenyi, cat #130-094-125) according to the manufacturer's instructions. Aliquots of 3×10E6 purified TEM cells were kept frozen in Cryo-SFM medium (PromoCell, cat #C-29912) in gas phase nitrogen until used. Cell purity was verified by flow cytometry analysis of 200 000 PFA-fixed cells previously labelled with monoclonal antibodies anti-CD4-PerCP-Cy5.5 (BD Pharmigen, cat #332772), anti-CD8-V500 (BD Biosciences, cat #561617), anti-CD14-Pacific Blue (Biolegend, cat #325616), anti-CD45 RA-FITC (Biolegend, cat #304106) and anti-CCR7-APC (in CD4+ Effector Memory T Cell Isolation Kit, Miltenyi, cat #130-094-125).
TEM cells were resuspended in complete RPMI medium composed of: RPMI 1640 (Gibco, cat #31870-025), 10% heat inactivated fetal bovine serum (Sigma, cat #F7524), 2 mM GlutaMAX (Gibco, cat #35050-038), 1 mM sodium pyruvate 100× (Gibco, cat #11360-039), 1% MEM non-essential amino acids solution (Gibco, cat #11140-035) and 100 U/mL penicillin, 100 μg/mL streptomycin (Sigma-Aldrich, cat #11074440001). 5,000 cells per well were plated onto flat clear bottom 384 well plates (Corning, cat #3770). 5,000 Dynabeads Human T-Activator CD3/CD28 (Gibco, cat #11132D) were added to each well for cell stimulation. Finally, 10 doses of test compound, originally prepared in DMSO by serial semi-log step dilution, were also added to cells in triplicate wells. Final DMSO concentration in wells was 0.1% in a total volume of 100 μL complete medium. Plates were incubated for 24 h at 37° C. in 5% CO2 atmosphere. After incubation, cell suspensions were centrifuged at 400×g and culture supernatants were recovered and stored at −80° C. Cell viability was assessed by flow cytometry after staining the cells with Fixable Viability Dye eFluor 780 (Invitrogen, cat #65-0865-14). IL-2 levels were determined in cell supernatants using an HTRF human IL-2 detection kit (Cisbio, cat #62HIL02PEH). IL-2 data at the different compound doses were fitted to a 4-parameter logistic curve to determine IC50 values, corresponding to the compound concentration leading to 50% reduction of the maximal IL-2 levels observed in each experiment. Viability data were analysed similarly to exclude cytotoxicity as a cause of IL-2 decrease (see Table 1).

[2] = biological target: Recombinant human MALT-1 (amino acids 340-824) (Homo sapiens (Human), UniProt Q9UDY8); assay: MALT-1 inhibition assay (fluorogenic substrate Ac-LRSR-Rh110-DP); assay type: biochemical; conditions: recombinant human MALT-1, substrate Ac-LRSR-Rh110-DP
Recombinant human MALT-1 (amino acids 340-824), sequence (Q9UDY8 340-824): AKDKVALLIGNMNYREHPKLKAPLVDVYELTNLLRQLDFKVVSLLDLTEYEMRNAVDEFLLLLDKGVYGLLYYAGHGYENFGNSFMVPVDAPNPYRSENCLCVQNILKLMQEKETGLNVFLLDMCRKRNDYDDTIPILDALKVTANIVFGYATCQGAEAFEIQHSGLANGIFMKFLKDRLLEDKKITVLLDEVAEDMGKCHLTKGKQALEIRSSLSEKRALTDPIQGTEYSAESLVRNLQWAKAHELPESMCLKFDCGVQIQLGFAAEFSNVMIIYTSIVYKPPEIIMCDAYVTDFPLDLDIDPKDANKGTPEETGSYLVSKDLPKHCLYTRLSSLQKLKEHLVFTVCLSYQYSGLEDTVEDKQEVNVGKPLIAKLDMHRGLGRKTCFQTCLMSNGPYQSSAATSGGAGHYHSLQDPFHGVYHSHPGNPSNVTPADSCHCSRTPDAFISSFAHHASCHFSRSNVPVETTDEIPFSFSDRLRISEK
Description: MALT-1 paracaspase activity was measured using the fluorogenic substrate Ac-LRSR-Rh110-DP (purchased from Biosantan GmbH). […] The reaction was initiated by addition of substrate. Final concentrations of MALT-1 and substrate were 3 nM and 10 μM respectively. Reactions were incubated in the dark for 60 minutes at 25° C. […] Percent inhibition values were calculated from relative fluorescence units at different doses and fitted to a 4-parameter logistic curve to determine IC50 values (see Table 1).

Compound | IC50 [1] [nM] | IC50 [2] [nM]
COc1ccc2ncc(Nc3ccc([C@H](N(C)C(=O)C4CCS(=O)(=O)CC4)C(F)(F)F)cn3)c([C@@H](C)OC)c2n1 (relative stereo) [CPD0019006, N-methyl-1,1-dioxo-N-[(1S)-2,2,2-trifluoro-1-[6-({6-methoxy-4-[(1 rel S)-1-methoxyethyl]-1,5-naphthyridin-3-yl}amino)pyridin-3-yl]ethyl]-1λ^6-thiane-4-carboxamide] | 180 | 
COc1ccc2ncc(Nc3ccc([C@@H](N(C)C(=O)[C@H]4CC[S@](=N)(=O)CC4)C(F)(F)F)cc3)c([C@@H](C)OC)c2n1 (stereo in doubt) [CPD0077189, (1 rel-s,4rel-s)-1-imino-N-methyl-1-oxo-N-[(1R)-2,2,2-trifluoro-1-[4-({6-methoxy-4-[(1 rel-R)-1-methoxyethyl]-1,5-naphthyridin-3-yl}amino)phenyl]ethyl]-1λ^6-thiane-4-carboxamide] |  | 274
CN(C(=O)[C@H]1CNC(=O)C1)[C@H](c1ccc(N2CCCc3c2cnc2cc(Cl)nn32)cc1)C(F)(F)F (stereo in doubt) [CPD0077244, (3 rel-R)—N-[(1R)-1-[4-(4-chloro-2,3,7,10-tetrazatricyclo[7.4.0.0^2,6]trideca-1(9),3,5,7-tetraen-10-yl)phenyl]-2,2,2-trifluoro-ethyl]-N-methyl-5-oxo-pyrrolidine-3-carboxamide] |  | 581
CN(C(=O)[C@@H]1CNC(=O)C1)[C@H](c1ccc(N2CCCc3c2cnc2cc(Cl)nn32)cc1)C(F)(F)F (stereo in doubt) [CPD0077245, (3 rel-S)—N-[(1R)-1-[4-(4-chloro-2,3,7,10-tetrazatricyclo[7.4.0.0^2,6]trideca-1(9),3,5,7-tetraen-10-yl)phenyl]-2,2,2-trifluoro-ethyl]-N-methyl-5-oxo-pyrrolidine-3-carboxamide] |  | 355
CN(C(=O)C1CC(O)C1)[C@@H](c1ccc(N2CCCc3c2cnc2cc(Cl)nn32)cc1)C(F)(F)F (some centres unmarked) [CPD0073055] |  | 46
CN(C(=O)[C@@H]1CCN(C(=O)C2(O)CC2)C1)[C@@H](c1ccc(N2CCCc3c2cnc2cc(Cl)nn32)cc1)C(F)(F)F [CPD0073978, (3rel-R)-N-[(1S)-1-[4-(4-chloro-2,3,7,10-tetrazatricyclo[7.4.0.0^2,6]trideca-1(9),3,5,7-tetraen-10-yl)phenyl]-2,2,2-trifluoro-ethyl]-1-(1-hydroxycyclopropanecarbonyl)-N-methyl-pyrrolidine-3-carboxamide] |  | 54
COc1ccc2ncc(Nc3ccc([C@H](N(C)C(=O)C4CCS(=O)(=O)CC4)C(F)(F)F)cc3)c(C(=O)N3CCC3)c2n1 [CPD0074046, N-[(1S)-1-[4-[[4-(azetidine-1-carbonyl)-6-methoxy-1,5-naphthyridin-3-yl]amino]phenyl]-2,2,2-trifluoro-ethyl]-N-methyl-1,1-dioxo-thiane-4-carboxamide] |  | 494
COc1ccc2ncc(Nc3ccc([C@H](N(C)C(=O)C4CCS(=O)(=O)CC4)C(F)(F)F)cc3)c(COC3CC3)c2n1 [CPD0074048] |  | 163
CC(=O)N1CCC(C(=O)N(C)[C@@H](c2ccc(N3CCCc4c3cnc3cc(F)nn43)cc2)C(F)(F)F)CC1 [CPD0074050, 1-acetyl-N-methyl-N-[(1S)-2,2,2-trifluoro-1-(4-{4-fluoro-2,3,7,10-tetraazatricyclo[7.4.0.0^2,6]trideca-1(9),3,5,7-tetraen-10-yl}phenyl)ethyl]piperidine-4-carboxamide] |  | 85
CC(=O)N1CCC(C(=O)N(C)[C@@H](c2ccc(N3CCCc4c3cnc3cc(Cl)nn43)nc2)C(F)(F)F)CC1 [CPD0074051, 1-acetyl-N-[(1S)-1-[6-(4-chloro-2,3,7,10-tetrazatricyclo[7.4.0.0^2,6]trideca-1(9),3,5,7-tetraen-10-yl)-3-pyridyl]-2,2,2-trifluoro-ethyl]-N-methyl-piperidine-4-carboxamide] |  | 154
CN(C(=O)[C@H]1C[C@@H](O)C1)[C@@H](c1ccc(N2CCCc3c2cnc2cc(Cl)nn32)cc1)C(F)(F)F [CPD0074538] |  | 57
C[C@@H]1CCN(c2ccc([C@H](N(C)C(=O)[C@@H]3CNC(=O)C3)C(F)(F)F)cc2)c2cnc3cc(Cl)nn3c21 [CPD0074548] |  | 46
C[C@@H]1CCN(c2ccc([C@H](N(C)C(=O)[C@H]3CNC(=O)C3)C(F)(F)F)cc2)c2cnc3cc(Cl)nn3c21 [CPD0074560] |  | 43
C[C@H]1CCN(c2ccc([C@H](N(C)C(=O)[C@@H]3CNC(=O)C3)C(F)(F)F)cc2)c2cnc3cc(Cl)nn3c21 [CPD0074569] |  | 30
CN(C(=O)[C@H]1CC(=O)N1)[C@@H](c1ccc(N2CCCc3c2cnc2cc(Cl)nn32)cc1)C(F)(F)F [CPD0075869, (2R)-N-[(1S)-1-[4-(4-chloro-2,3,7,10-tetrazatricyclo[7.4.0.0^2,6]trideca-1(9),3,5,7-tetraen-10-yl)phenyl]-2,2,2-trifluoro-ethyl]-N-methyl-4-oxo-azetidine-2-carboxamide] |  | 75
CN(C(=O)[C@H]1CCN(C(=O)CO)C1)[C@@H](c1ccc(N2CCCc3c2cnc2cc(F)nn32)cc1)C(F)(F)F [CPD0075878] |  | 111
CN(C(=O)[C@@H]1CCN(C(=O)CO)C1)[C@@H](c1ccc(N2CCCc3c2cnc2cc(F)nn32)cc1)C(F)(F)F [CPD0075879] |  | 154
COc1ccc2ncc(Nc3ccc([C@H](N(C)C(=O)C4CCS(=O)(=O)CC4)C(F)(F)F)cc3)c(C3(F)COC3)c2n1 [CPD0076413, N-methyl-1,1-dioxo-N-[(1S)-2,2,2-trifluoro-1-[4-[[4-(3-fluorooxetan-3-yl)-6-methoxy-1,5-naphthyridin-3-yl]amino]phenyl]ethyl]thiane-4-carboxamide] |  | 109
CO[C@@H](C)c1c(Nc2ccc([C@H](N(C)C(=O)[C@H]3CCC(=O)N3)C(F)(F)F)cc2)cnn2cc(Cl)nc12 [CPD0082469, (2R)-N-[(1S)-1-[4-[[2-chloro-8-[(1 S)-1-methoxyethyl]imidazo[1,2-b]pyridazin-7-yl]amino]phenyl]-2,2,2-trifluoro-ethyl]-N-methyl-5-oxo-pyrrolidine-2-carboxamide] |  | 45
COc1ccc2ncc(Nc3ccc([C@H](N(C)C(=O)C4CCN(C(C)=O)CC4)C(F)(F)F)cc3)c([C@H]3CCOC3)c2n1 [CPD0082479] |  | 111
COc1ccc2ncc(Nc3ccc([C@H](N(C)C(=O)C4CCN(C(C)=O)CC4)C(F)(F)F)cc3)c([C@@H]3CCOC3)c2n1 [CPD0082480] |  | 77
COc1ccc2ncc(Nc3ccc([C@H](N(C)C(=O)C4CCN(C(=O)CO)CC4)C(F)(F)F)cc3)c([C@H]3CCOC3)c2n1 [CPD0082481] |  | 73
COc1ccc2ncc(Nc3ccc([C@H](N(C)C(=O)C4CCN(C(=O)CO)CC4)C(F)(F)F)cc3)c([C@@H]3CCOC3)c2n1 [CPD0082482] |  | 72
CO[C@@H](C)c1c(Nc2ccc([C@H](N(C)C(=O)C3CCN(C(=O)CO)CC3)C(F)(F)F)cc2)cnn2cc(Cl)nc12 [CPD0084141, N-[(1S)-1-[4-[[2-chloro-8-[(1S)-1-methoxyethyl]imidazo[1,2-b]pyridazin-7-yl]amino]phenyl]-2,2,2-trifluoro-ethyl]-1-(2-hydroxyacetyl)-N-methyl-piperidine-4-carboxamide] |  | 43
CO[C@@H](C)c1c(Nc2ccc([C@H](N(C)C(=O)C3CC4(C3)CS(=O)(=O)C4)C(F)(F)F)cc2)cnn2cc(Cl)nc12 [CPD0084934] |  | 54
N-[(1S)-1-[4-[[2-chloro-8-[(1S)-1-methoxyethyl]imidazo[1,2-b]pyridazin-7-yl]amino]phenyl]-2,2,2-trifluoro-ethyl]-N-methyl-1,1-dioxo-thiane-4-carboxamide [CPD0084508] |  | 182
